Experimental data from patent US20130158098A1, “Alkenyl Substituted Cycloaliphatic Compounds as Chemical Inducers of Proximity” (priority 2010, published 2013).

Target: T1, VP16-PYLcs and Gal4 DBD-ABIcs (Arabidopsis thaliana, UniProt Q8VZS8)
T1 construct: HA (from the reverse primer); expressed in transfected cells; host or cells: CHO; also HEK 293/293T, NIH3T3, COS7, B35, Jurkat, E14, TC1, MEF
T1 sequence (Q8VZS8 33-209): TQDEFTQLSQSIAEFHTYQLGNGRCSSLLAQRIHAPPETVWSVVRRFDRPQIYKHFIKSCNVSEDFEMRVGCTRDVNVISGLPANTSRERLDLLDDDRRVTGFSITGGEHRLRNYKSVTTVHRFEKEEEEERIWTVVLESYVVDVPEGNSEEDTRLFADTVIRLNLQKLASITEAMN
T1 sequence (P49597 126-423 partner): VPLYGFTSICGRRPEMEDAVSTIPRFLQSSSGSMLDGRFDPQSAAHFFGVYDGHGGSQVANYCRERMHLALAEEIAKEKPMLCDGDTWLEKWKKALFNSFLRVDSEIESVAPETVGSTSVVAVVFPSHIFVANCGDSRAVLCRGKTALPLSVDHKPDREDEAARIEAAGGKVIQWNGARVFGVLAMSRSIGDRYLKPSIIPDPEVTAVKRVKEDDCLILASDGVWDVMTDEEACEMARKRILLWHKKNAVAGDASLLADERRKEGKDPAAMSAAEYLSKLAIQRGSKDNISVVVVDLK
Experiment: ABA-induced luciferase activation (ABA-activator cassette + UAS-luciferase reporter)
Assay type: cell-based
Text: Activation construct: A fragment of PYL1 (one of PYR/PYL/RCAR members) (aa 33-209, also referred to as “PYLcs”) was linked to a transcriptional activation domain and a fragment of ABI1 (one of PP2C members) (aa 126-423, SEQ ID NO:2, also referred to as “ABIcs”) was linked to a DNA binding domain using recombinant DNA methods. In the constructs illustrated in FIG. 1 and FIG. 2, PYL1 (“PYLcs”) is fused to the VP16 activation domain and ABI1 (“ABIcs”) is fused to the Gal4 DNA binding domain. These two regulatory elements are linked by IRES and driven by the SV40 early promoter. Reporter constructs: Full length Luciferase is driven by Fos gene minimal promoter with 5 copies of Gal4 DNA binding sites immediately upstream of Fos promoter. GFP reporter is driven by IL2 minimal promoter with 5×Gal4 DNA binding sites upstream.
CHO, HEK 293T, NIH 3T3, B35, MEF, and COS7 cells were cultured in Dulbecco's modified Eagle's medium (DMEM) (Gibco) with 10% FBS (Omega Scientific), 1× glutamate (Gibco), and 1× penicillin/streptomycin (Pen/Strep; Gibco). Jurkat cells were cultured in RPMI 1640 (Gibco) with 10% FBS, 1× glutamate, and 1×Pen/Strep. E14 and TC1 were cultured in Knockout DMEM (Gibco) with 7.5% ES FBS (Applied Stem Cell), 7.5% knockout SR (Gibco), 1× Hepes (Gibco), 1× sodium pyruvate (Gibco), 1×MEM NEAA (nonessential amino acids; Gibco), 1×2-mercaptoethanol (Gibco), 1× glutamate, 1×Pen/Strep, and leukemia inhibitory factor (LIF) on gelatin (Millipore)-coated plates. Cells (50,000 to 200,000) were plated in a well of a 24-well plate the day before transfection. An amount of 0.1 to 0.5 μg of DNA of each construct was mixed with 50× (v/w) Opti-MEM (Gibco), and then 3× (v/w) FuGENE HD (Roche) was added and thoroughly mixed. After incubation at room temperature for 20 min, the mixture was added to the cells and cultured for 24 to 48 hours before experiments were performed.
Cells in 24-well plates were lysed with 100 μl of 1× Passive Lysis Buffer (Promega) at room temperature for 10 min on a shaker (˜80 rpm). Cell lysates were then spun down (16,000 g) and 10 μl of supernatant was used for luciferase assay. Luciferase substrate solution [100 μl; 5 mg of D-luciferin (BD Biosciences) and 7 mg of coenzyme A (Sigma) in 33 ml of luciferase reading buffer: 20 mM tricine, 1.07 mM (MgCO3)4Mg(OH)2.5H2O, 2.67 mM MgSO4, 0.1 mM EDTA, 33.3 mM dithiothreitol (DTT), and 0.53 mM ATP in water] was added to the cell lysates, and signal was read with a 3-s delay and 1-s integration with a Turner BioSystem Modulus microplate reader. Obtained data were analyzed by Prism 5 (GraphPad Software).
The inducible gene activation module illustrated in FIG. 1 was introduced into a mammalian cell line (CHO, Chinese Hamster Ovary cells) along with a luciferase reporter to test the inducibility of gene activation by ABA, as shown in FIG. 2.
To assay the ability of ABA to induce effective proximity of chimeric proteins, the ability of ABA to reconstitute protein domains was tested. In this strategy, ABA was used to induce the proximity of the yeast Gal4 DNA binding domain (Gal4 DBD) to the herpes simplex virus VP16 transactivation domain (VP16AD) (FIG. 2B). […] The VP16AD, when tethered to DNA binding domains, strongly activates transcription but cannot act without proximity to a DNA binding domain. To test gene activation by ABA-induced proximity of Gal4 DBD and VP16AD, an ABA-activator cassette was constructed by fusing Gal4 DBD to the domain of ABI1 that interacts with PYL1 (the complementary surface of ABI1, or “ABIcs”) and VP16AD to the domain of PYL1 that interacts with ABI1 (the complementary surface of PYL1, or “PYLcs”) (FIG. 2B).
The ABA-induced domain reconstitution leading to induction of gene expression was compared to a similar system in Chinese hamster ovary (CHO) cells controlled by Rap, which has wild-type FKBP12 and Frb replacing ABIcs and PYLcs, respectively, in the chimeric proteins. […]

[1] = E14 and CHO cells (FIG. 12D, FIG. 19)

CC1=CC(=O)CC(C)(C)C1(O)/C=C/C(C)=C/C(=O)O (centres unmarked) [ABA, abscisic acid]
gene activation in different cell types (100 μM, 24 hours, CHO, NIH3T3, HEK293T, COS7, B35, Jurkat, E14, TC1, MEF): observed in all cell types tested | change in protein activity relative to untreated cells (factor) (ABA system): > 1000 | specificity of luciferase induction (ABA vs Rap protein pairs) (CHO and NIH 3T3 cells, 24 hours): only induced by matching small-molecule and dimerizing protein pairs | relative activation change compared with Rap (CHO cells): comparable | reversibility of luciferase transcription upon removal (CHO cells, 100 μM for 24 hours then ABA-free media): fully reversible | dose response of transactivation (CHO cells, 24 hours): large linear range | time for gene activation to reverse to background after withdrawal (CHO cells, induced 24 hours, washed five times with fresh medium): ≤ 24 h | time at which activation of luciferase was first observed after addition [1]: 1.5 h | time to reach maximum luciferase activation [1]: ≤ 24 h | relative activation change compared with Rap (E14 cells): much higher | luciferase production induced (murine embryonic stem (ES) cells, NIH 3T3 and HEK 293T cells, 24 hours): more than three orders of magnitude
